{"source": "patent US20250276026A1", "about": "“TRANSIENT COMMENSAL MICROORGANISM FOR IMPROVING GUT HEALTH” (INFINANT HEALTH, INC, priority 2016, published 2025)", "tested_on": "Clostridium difficile", "assay": "Outbreak of Clostridium difficile hemorrhagic diarrhea in newborn foals; probiotic formulation vs standard of care", "type": "in vivo", "conditions": "all animals dosed at birth with 6.6 mg/kg", "protocol": "Newborn foals born to mares at a large horse breeding barn were monitored during an outbreak of severe hemorrhagic diarrhea among the foals. […] Seventeen foals were born during the initial phase of the outbreak, of which fifteen animals became ill and required intervention according to the standard of care as described in the Merck Veterinary Manual. Standard of care involved metronidazole treatment given at a dose of 15-20 mg/kg, PO, tid-qid. and may also involve administration of large volumes of interveneous polyionic fluids, with supplemental electrolytes (potassium, magnesium, and calcium), plasma or synthetic colloids for low oncotic pressure, anti-inflammatoires such as flunixin meglumine, and broad-spectrum antibiotics if the horse is leukopenic and at risk of bacterial translocation across the compromised GI tract. Polymyxin B may aid in binding systemic endotoxin.\nOf these seventeen foals, fifteen developed loose stool or diarrhea lasting 3-4 days, and 2 died as a result of the infection. After observing the outbreak, the next foals were provided a formulation of 3×10^12 CFU Bifidobacterium longum subsp. infantis EVBL001 and 5×10^9 CFU of Lactobacillus plantarum EVLP001 every 12 hours. The two foals that were provided with the formulation at 12 hours of age developed a mild diarrhea, but recovered within 8 hours compared to 3-4 days with standard of care. […]"}
{"compound": "CO/N=C(\\C(=O)N[C@@H]1C(=O)N2C(C(=O)O)=C(CSC(=O)c3ccco3)CS[C@H]12)c1csc(N)n1", "note": "[ceftiofur]", "values": [{"measurement": "effect on health outcome related to diarrhea", "result": "did not affect health outcome"}]}
